From US10711000B2 (Fronthera U.S. Pharmaceuticals LLC, priority 2018, dated 2020)
Like-named read-outs stand apart in the source and are kept apart here.

Assays:
Autotaxin [1] = biological target: T1, Autotaxin (Homo sapiens, UniProt Q13822); experiment: LPA formation in pooled human plasma (ex vivo autotaxin inhibition); assay type: biochemical; details: 2 hours incubation
T1 construct: from tissue; host or cells: pooled human plasma
Summary of the method: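 Ex vivo: LPA 18:2 and 20:4 levels in compound-treated versus untreated pooled human plasma after 2 h incubation, measured by butanol extraction and negative-mode MRM LC/MS/MS against calibration standards. IC50 from non-linear fit of inhibition versus concentration.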

[2] = Pharmacokinetics after a single oral dose in SD rats; assay type: in vivo; details: Sprague-Dawley, rat, plasma, single oral dose in 0.5% methylcellulose; for half-life: read-out: T½ (converted)
Source text: (§1) The pharmacokinetics and pharmacodynamics of test compounds after a single oral dose were investigated in SD rats, Beagle dog and Cynomolgus monkey. SD Rats (200-250 g) were purchased from Beijing Vital River Laboratory Animal Technology Co., Ltd. Male Beagle Dog, 6-9 kg, were purchased from Beijing Mashall. Male Cynomolgus monkeys, 3-5 kg, were purchased from Suzhou Xishan Zhongke Drugs Research and Development Co., Ltd. Following arrival, the animals were acclimated for 7 days in individual cages maintained at ambient temperature, 34 to 68% relative humidity, and 12-h light/dark cycles. Just prior to dose administration the rats were fasted overnight with free access to water. Animals were given 10 mL/kg of formulated compound in 0.5% methylcellulose (MC) by oral gavage, and the animals were fed four hours after dosing. The animals were manually restrained at the designated time points (pre-dose, 0.5, 1, 3, 6, 9, 12, and 24 h post-dose) to collect blood. Approximately 120 μL of blood was collected via orbital sinus into K2EDTA tubes. The blood samples were centrifuged at 5000 rpm for 10 min at 4° C. to obtain plasma samples.
To determine the compound concentration in the plasma samples, a 10× calibration standard of compound were prepared by serial dilution in DMSO: 20000, 10000, 5000, 2000, 1000, 500, 200, 100, 50, 20, and 10 ng/mL. 3 μL of calibration standard solution was added into 27.0 μL of blank plasma in 1.5-mL microcentrifuge tubes to generate 1× calibration standards. The 30.0 μL of standards or study plasma was mixed with 200 μL of acetonitrile (containing 5 ng/mL verapamil for internal control) in a 1.5-mL microcentrifuge tube. After vertexing for 1 minute and centrifuging at 10000 rpm for 10 min, 180 μL of supernatant was transferred into a 96-well plate and the compound concentration in the plasma was quantitated using LC/MS/MS together with standards. Briefly, 1 μL of the solutions were injected for LC-MS/MS analysis using an Agilent Zorbax C18 column (50×2.1 mm, 3.5 μm) with mobile phase A [5 mM NH4Ac (0.1% FA)] and phase B [Methanol (0.1% FA)]. Mass spectrometer parameters optimization for compound was performed by infusing standard diluted at 1 μg/mL in water/methanol (1/1, v/v) directly in the ionization source at a flow of 10 μL/min. Quantitative data were acquired in multiple reaction monitoring (MRM) positive APCI mode.

Autotaxin [3] = biological target: T2, Autotaxin (Rattus norvegicus, UniProt Q64610); experiment: Pharmacodynamics: LPA 18:2 inhibition in plasma of SD rats after oral dose; details: single oral dose, LPA18:2 inhibition vs plasma concentration of compound, read-out: In vivo rat IC50 (LPA 18:2) (converted)
T2 construct: from tissue; host or cells: SD rats in vivo; plasma sampled after a single oral dose
Source text: as §1
Autotaxin is a secreted phosphodiesterase that converts lysophosphatidylcholine (LPC) into lysophosphatidic acid (LPA), and LPA 18:2 formation was used to evaluate the efficacy of autotaxin inhibitors. Therefore, the LPA 18:2 formation in response to drug administration was analyzed in each time point to assess the pharmacodynamics of test compounds. To determine the LPA18:2 concentration in study plasma, a 10× calibration standard of LPA 18:2 were prepared by serial dilution in butyl alcohol: 20000, 10000, 5000, 2000, 1000, 500, 200, 100, 50, 20, and 10 ng/mL. 3 μL of calibration standard solution was added into 27.0 μL of blank plasma in 1.5-mL microcentrifuge tubes to generate 1× calibration standards. The 30.0 μL of standards or study plasma was added into 1.5-mL microcentrifuge tubes. 200 μL of butyl alcohol (containing 25.0 ng/mL LPA17:0 for internal control) was added into each 1.5-mL microcentrifuge tube containing study plasma or calibration standards. After vortexing for 1 minute and centrifuging at 10000 rpm for 10 min, 180 μL of supernatant was transferred into a 96-well plate and the LPA18:2 concentration in the plasma was quantitated using LC/MS/MS together with standards. Briefly, 8 μL of the solutions were injected for LC-MS/MS analysis using an ACQUITY UPLC BEH C18 column (2.1×50 mm, 1.7 μm) with mobile phase A [20 mM NH4OAC in water (0.1% FA)] and phase B [5 mM NH4OAC in water/0.2% FA in ACN=5:95]. Mass spectrometer parameters optimization for LPA18:2 were performed by infusing standard diluted at 1 μg/mL in butyl Alcohol directly in the ionization source, at a flow of 10 μL/min. Deprotonated molecular ion at m/z 433.2 ([M−H]−) for LPA18:2, and abundant product ion at m/z 152.8 for LPA18:2 were obtained. Quantitative data were acquired in multiple reaction monitoring (MRM) negative electrospray ionization mode
The percentage of LPA18:2 inhibition was plotted against the corresponding concentration of compound and the IC50 was calculated through non-linear regression fitting.

[4] = LPA 18:2 by LC/MS/MS, read-out: LPA formation (18:2) (IC50)
[5] = LPA 20:4 by LC/MS/MS, read-out: LPA formation (20:4) (IC50)

IC50 (Autotaxin [1]; [4]) [nM]	IC50 (Autotaxin [1]; [5]) [nM]	AUC [2] [ng·h/mL]	Cmax [2] [ng/mL]	half-life [2] [h]	IC50 (Autotaxin [3]) [nM]	SMILES
≤ 100	≤ 100	269 ± 85	67.1 ± 24	3.46 ± 0.21	10	CCc1nn2cc(F)c(N3CCN(CC(=O)N4CC[C@@H](O)C4)CC3)cc2c1N(C)c1nc(-c2ccc(F)cc2)c(C#N)s1 [Example 109, (R)-2-((2-ethyl-6-fluoro-5-(4-(2-(3-hydroxypyrrolidin-1-yl)-2-oxoethyl)piperazin-1-yl)pyrazolo[1,5-a]pyridin-3-yl)(methyl)amino)-4-(4-fluorophenyl)thiazole-5-carbonitrile]
≤ 100	≤ 100	2210 ± 704	584 ± 265	4.36 ± 1.3	176	CCn1nc2ncc(N3CC4(CN(C(=O)[C@H]5CCOC5)C4)C3)cc2c1N(C)c1nc(-c2ccc(F)cc2)c(C#N)s1 [Compound 117]
≤ 100	≤ 100	222 ± 160	96.2 ± 73	1.64 ± 1.27	18.6	CCn1nc2nc(C)c(N3CCN(CC(=O)N4CC(O)C4)CC3)cc2c1N(C)c1nc(-c2ccc(F)cc2)c(C#N)s1 [Compound 119, 2-((2-ethyl-5-(4-(2-(3-hydroxyazetidin-1-yl)-2-oxoethyl)piperazin-1-yl)-6-methyl-2H-pyrazolo[3,4-b]pyridin-3-yl)(methyl)amino)-4-(4-fluorophenyl)thiazole-5-carbonitrile]
